# PMC11618697 (Nature Communications, 2024)
# Residues, ends and D or L forms follow the SMILES beside them. *: point of attachment. Cbz = O=C(OCc1ccccc1)*
# Assays:
# Hut78 cells [1] = assay: Cell proliferation assays; type: cell-based, human
# [2] = test system: CD25, CD5 and CD7 on HH and Hut78 cells; assay: Flow cytometry of CD25, CD5 and CD7; type: cell-based, human; conditions: 2 µM, 48 hours
# [3] = test system: Foxp3 in HH and Hut78 cells; assay: Intracellular staining of Foxp3; type: cell-based, human; conditions: 1 µM, 48 h
# human CD25 = assay: IHC staining of human CD25 in Hut78 xenograft tumors; type: in vivo, NSG mice
# HH tumors = assay: HH cell line derived xenograft in nude mice; type: in vivo
# CDK9 [4] = molecular target: T1, CDK9 (Homo sapiens, UniProt P50750); type: cell-based; conditions: Hut78; 10 μM for 2 h prior to 6-h of GT-02897 (100 nM)
# T1 sequence (P50750 whole entry): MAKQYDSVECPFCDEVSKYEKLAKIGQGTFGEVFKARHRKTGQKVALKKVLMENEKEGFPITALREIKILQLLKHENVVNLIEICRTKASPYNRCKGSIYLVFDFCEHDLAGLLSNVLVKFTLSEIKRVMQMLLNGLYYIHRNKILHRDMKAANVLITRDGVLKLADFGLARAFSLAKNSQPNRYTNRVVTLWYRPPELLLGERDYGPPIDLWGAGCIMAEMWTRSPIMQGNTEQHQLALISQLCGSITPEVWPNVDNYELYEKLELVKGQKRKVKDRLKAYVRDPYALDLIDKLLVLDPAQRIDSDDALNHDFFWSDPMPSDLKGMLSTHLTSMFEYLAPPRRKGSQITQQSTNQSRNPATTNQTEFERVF
# Hut78 cells [5] = assay: IC50 assay, trypan blue exclusion count; type: cell-based, human
# HH cells [6] = assay: IC50 assay, trypan blue exclusion count; type: cell-based; conditions: Homo sapiens, 48 h
# 293T cells = assay: Viability of normal cells, trypan blue; type: cell-based, human
# CDK9 [7] = molecular target: T1, CDK9; assay: Western blot of CDK9 in Hut78 cells; type: cell-based; conditions: for degradation of CDK9 (immunoblot): Hut78 cells
# CDK2, CDK6 and CDK7 = assay: Western blot of other CDKs in Hut78 cells; type: cell-based, human
# CDK9 [8] = molecular target: T1, CDK9; assay: DC50; type: cell-based; conditions: CDK9 in Hut78 cells; 10 h
# [9] = test system: CDK9 (55 kDa) and CDK9 (42 kDa) mRNA; assay: Q-PCR of CDK9 isoforms in Hut78 cells; type: cell-based, human
# Hut78 xenografts = assay: Hut78 cell line derived xenograft in NSG mice; type: in vivo
# Hut78 cell proteins = assay: Quantitative MS-based proteomics of Hut78 cells; type: cell-based, human
# CDK9 [10] = molecular target: T1, CDK9; assay: IHC staining of human CDK9 in Hut78 xenograft tumors; type: in vivo, NSG mice; conditions: intraperitoneal injection
# HH cells [11] = assay: Candidate PROTACs, cell viability by CCK8; type: cell-based, human; conditions: CCK8 (Fig 3c)
# RARA mRNA = assay: Q-PCR of RARA in Hut78 cells; type: cell-based, human
# RARα = assay: Western blot of RARα in Hut78 cells; type: cell-based, human
# CDK9 [12] = molecular target: T1, CDK9; assay: Western blot of CDK9 in MOLT-4 cells; type: cell-based; conditions: MOLT-4 acute lymphoblastic leukemia cell line
# CDK9 [13] = assay: Western blot of CDK9 in HH cells; conditions: HH cells (Fig 3b)
# Hut78 cells [14] = assay: Cell viability / cell death at fixed dose, trypan blue; conditions: 250 nM, trypan blue (Supplementary Fig 4a)
smiles,measurement,setting,value
"CC1=C(/C=C/C(C)=C/C=C/C(C)=C/C(=O)O)C(C)(C)CCC1 [ATRA, all-trans retinoic acid]",CTCL cell growth and apoptosis,"Hut78 cells [1]; CTCL cells (Hut78, Fig 7g)",significant inhibition of cell growth without cell apoptosis
same,cell growth of shCDK9-infected Hut78 cells,Hut78 cells [1]; Hut78 infected with shCDK9,more pronounced inhibition of cell growth
same,CD5 and CD7 level (flow cytometry),[2],unchanged
same,CD25 expression (flow cytometry),[2],emerging expression of CD25
same,Expression of Foxp3,[3],not changed
same,CD25 expression in isolated tumor tissues (IHC),human CD25,in vivo upregulation of CD25 expression
CC(C)(C)c1cnc(CSc2cnc(NC(=O)C3CCNCC3)s2)o1 [SNS-032],HH tumors in xenograft models,HH tumors,induced regression of HH tumors in vivo
same,effect of pre-treatment on degradation of CDK9 by GT-02897,CDK9 [4],significantly dampened the degradation of CDK9
"CC(C)(C)c1cnc(CSc2cnc(NC(=O)C3CCN(CCCCCSc4cccc5c4CN(C4CCC(=O)NC4=O)C5=O)CC3)s2)o1 (centres unmarked) [Compound 23, N-(5-(((5-(tert-butyl)oxazol-2-yl)methyl)thio)thiazol-2-yl)-1-(5-((2-(2,6-dioxopiperidin-3-yl)-1-oxoisoindolin-4-yl)thio)pentyl)piperidine-4-carboxamide]",IC50,"Hut78 cells [5]; Homo sapiens, HuT78, 48 h",49.7 nM
same,IC50,HH cells [6],66.2 nM
same,killing effects on 293T cell,293T cells,minimal killing effects
same,degradation of CDK9 (immunoblot),CDK9 [7],strong degradation of CDK9
same,"protein levels of CDK2, CDK6 and CDK7 (immunoblot)","CDK2, CDK6 and CDK7","without interfering protein levels of CDK2, CDK6 and CDK7"
same,DC50,CDK9 [8],2.85 nM
same,mRNA expression of CDK9 (42 kDa) and CDK9 (55 kDa) isoforms,[9],not affected
same,"CTCL tumors in vivo, co-administration with ATRA",Hut78 xenografts; Hut78 xenograft,more significant inhibition of CTCL tumors in vivo
same,Hut78 cell growth in vivo,"Hut78 xenografts; every other day, intraperitoneal or subcutaneous injection, 14 days",significantly suppress Hut78 cell growth in vivo
same,growth inhibition effect in CDK9-depleted (shRNA) Hut78 xenografts,Hut78 xenografts; shCDK9-1 or shCDK9-2,significantly impaired the growth inhibition effect of GT-02897
same,CDK9 abundance in quantitative proteomics,"Hut78 cell proteins; 6 h after treatment, 5,689 proteins",one of the most significantly downregulated proteins
same,RARα protein,"Hut78 cell proteins; proteomics 12 hours, validated by western blot",significantly upregulated
same,"inhibition of CTCL cells, co-administration with ATRA","Hut78 cells [1]; Hut78, in vitro, cell number by trypan blue",more significant inhibition of CTCL cells
same,CDK9 in isolated tumor tissues (IHC),CDK9 [10],in vivo degradation of CDK9 by GT-02897 was further confirmed
"CC(C)(C)c1cnc(CSc2cnc(NC(=O)C3CCN(C(=O)COCCOCCSc4cccc5c4C(=O)N(C4CCC(=O)NC4=O)C5=O)CC3)s2)o1 (centres unmarked) [Compound 19, N-(5-(((5-(tert-butyl)oxazol-2-yl)methyl)thio)thiazol-2-yl)-1-(2-(2-(2-((2-(2,6-dioxopiperidin-3-yl)-1,3-dioxoisoindolin-4-yl)thio)ethoxy)ethoxy)acetyl)piperidine-4-carboxamide]",IC50,"Hut78 cells [5]; Homo sapiens, HuT78, 48 h",404 nM
same,concentration displaying significant killing effects,HH cells [11],below 500 nM
"CC(C)(C)c1cnc(CSc2cnc(NC(=O)C3CCN(CCCCSc4cccc5c4C(=O)N(C4CCC(=O)NC4=O)C5=O)CC3)s2)o1 (centres unmarked) [Compound 25, N-(5-(((5-(tert-butyl)oxazol-2-yl)methyl)thio)thiazol-2-yl)-1-(4-((2-(2,6-dioxopiperidin-3-yl)-1,3-dioxoisoindolin-4-yl)thio)butyl)piperidine-4-carboxamide]",IC50,"Hut78 cells [5]; Homo sapiens, HuT78, 48 h",50 to 165 nM
same,degradation of CDK9 (immunoblot),CDK9 [7],strong degradation of CDK9
same,"protein levels of CDK2, CDK6 and CDK7 (immunoblot)","CDK2, CDK6 and CDK7","without interfering protein levels of CDK2, CDK6 and CDK7"
"CC(C)(C)c1cnc(CSc2cnc(NC(=O)C3CCN(CCCCCCCSc4cccc5c4C(=O)N(C4CCC(=O)NC4=O)C5=O)CC3)s2)o1 (centres unmarked) [Compound 26, N-(5-(((5-(tert-butyl)oxazol-2-yl)methyl)thio)thiazol-2-yl)-1-(7-((2-(2,6-dioxopiperidin-3-yl)-1,3-dioxoisoindolin-4-yl)thio)heptyl)piperidine-4-carboxamide]",IC50,"Hut78 cells [5]; Homo sapiens, HuT78, 48 h",50 to 165 nM
same,degradation of CDK9 (immunoblot),CDK9 [7],strong degradation of CDK9
same,"protein levels of CDK2, CDK6 and CDK7 (immunoblot)","CDK2, CDK6 and CDK7","without interfering protein levels of CDK2, CDK6 and CDK7"
CN1CC[C@H](c2c(O)cc(O)c3c(=O)cc(-c4ccccc4Cl)oc23)[C@H](O)C1 [Flavopiridol],HH tumors in xenograft models,HH tumors,induced regression of HH tumors in vivo
same,mRNA level of RARA,RARA mRNA,nor did it affect the mRNA level of RARA
same,RARα protein (Western blot),RARα,did not yield upregulation of RARα
"CC(C)(C)c1cnc(CSc2cnc(NC(=O)C3CCN(CCCCCCCCSc4cccc5c4C(=O)N(C4CCC(=O)NC4=O)C5=O)CC3)s2)o1 (centres unmarked) [Compound 27, N-(5-(((5-(tert-butyl)oxazol-2-yl)methyl)thio)thiazol-2-yl)-1-(8-((2-(2,6-dioxopiperidin-3-yl)-1,3-dioxoisoindolin-4-yl)thio)octyl)piperidine-4-carboxamide]",IC50,"Hut78 cells [5]; Homo sapiens, HuT78, 48 h",50 to 165 nM
"CC(C)(C)c1cnc(CSc2cnc(NC(=O)C3CCN(CCCCCCCCSc4cccc5c4CN(C4CCC(=O)NC4=O)C5=O)CC3)s2)o1 (centres unmarked) [Compound 24, N-(5-(((5-(tert-butyl)oxazol-2-yl)methyl)thio)thiazol-2-yl)-1-(8-((2-(2,6-dioxopiperidin-3-yl)-1-oxoisoindolin-4-yl)thio)octyl)piperidine-4-carboxamide]",degradation of CDK9 (immunoblot),CDK9 [7],strong degradation of CDK9
same,"protein levels of CDK2, CDK6 and CDK7 (immunoblot)","CDK2, CDK6 and CDK7","without interfering protein levels of CDK2, CDK6 and CDK7"
"O=C1NCCc2[nH]c(-c3ccncc3)cc21 [PHA-767491, reference compound]",IC50,"Hut78 cells [5]; Hut78 cells, 48-h, trypan blue",926 nM
same,effect of pre-treatment on degradation of CDK9 by GT-02897,CDK9 [4],significantly dampened the degradation of CDK9
"CC(C)C[C@@H](C=O)NC(=O)[C@H](CC(C)C)NC(=O)[C@H](CC(C)C)NC(=O)OCc1ccccc1 [MG132, reference compound] (Cbz-Leu-Leu-Leu-aldehyde)",effect of MG132 on CDK9 loss induced by GT-02897,"CDK9 [7]; Hut78, GT-02897 in presence or absence of MG132",reverted the expression of CDK9 protein
CC(C)(C)c1cnc(CSc2cnc(NC(=O)C3CCN(CC(=O)NCCOCCOCCOCCNc4cccc5c4C(=O)N(C4CCC(=O)NC4=O)C5=O)CC3)s2)o1 (centres unmarked) [THAL-SNS-032],CDK9 protein (Western blot),CDK9 [12],induced significant loss of CDK9
same,CDK9 protein (Western blot),CDK9 [13],did not disturb CDK9 protein
same,killing in CTCL cells,Hut78 cells [14],nor did it display effective killing
"CC(C)(C)c1cnc(CSc2cnc(NC(=O)C3CCN(C(=O)CCCSc4cccc5c4C(=O)N(C4CCC(=O)NC4=O)C5=O)CC3)s2)o1 (centres unmarked) [Compound 9, N-(5-(((5-(tert-butyl)oxazol-2-yl)methyl)thio)thiazol-2-yl)-1-(4-((2-(2,6-dioxopiperidin-3-yl)-1,3-dioxoisoindolin-4-yl)thio)butanoyl)piperidine-4-carboxamide]",IC50,"Hut78 cells [5]; Homo sapiens, HuT78, 48 h",339 nM
same,concentration displaying significant killing effects,HH cells [11],below 500 nM
